Like-named read-outs stand apart in the source and are kept apart here.
What was measured:
J774A.1 macrophages = experiment: Modified Boyden chamber migration (chemotaxis) assay; format: cell-based, murine; conditions: for recruitment (migration) of macrophages: 0-25 μM, 4 h
Experimental: Chemotaxis and invasion assays were performed using a modified Boyden chamber migration assay. Zwirner et al. (1998) Eur. J. Immunol. 28: 1570-77; Wilkinson (1988) Methods Enzymol. 162: 38-50. Assays were set up on MultiScreen-MIC plates (Millipore, Billerica, Mass., USA) with polyvinylpyrrolidone-free polycarbonate membranes (5 μm pore size). Cells (murine macrophage J774A.1) were washed and resuspended in serum-free DMEM containing 0.2% BSA at 1×10^6 cells/ml. Fifty microliters of cells were added to the upper wells and 150 μl of chemoattractant in DMEM/0.2% BSA were added to the lower wells of the microchamber. Incubation time was for 4 h at 37° C. in an 8% CO2 atmosphere. After swiping cells off the upper side of the membrane, cells on the lower side were visualized by either staining and phase contrast microscopy, or fluorescence. Cells that had adhered to the membrane were stained using a DiffQuik staining kit (Dade Behring, Newark, Del.). Each experiment was performed in triplicate and the numbers of migrating cells were counted in five fields at ×200. Cells harvested with PBS-EDTA for fluorescent labeling were washed two times with PBS, then resuspended in serum-free medium containing calcein AM (5 μM). Cells were incubated for 30 min (37° C., 5% CO2) with gentle intermittent mixing. Calcein-labeled cells were washed twice, and calcein fluorescence ([…]) was measured using a SPECTRAmax™ GEMINI dual-scanning microplate spectrofluorometer. Fluorescence measurements were compared to a standard curve, generated by dilution of cells in PBS/BSA in 100 μl, dispensed into 96-well plates. Fluorescence was quantified as described above.

E-selectin = experiment: Endothelial adhesion molecule expression ELISA, E-selectin; format: cell-based, human; conditions: for upregulation of E-selectin expression relative to vehicle control: HAAE-1, 4 h, 25 μM in the presence of LDL (100 μg/mL protein), or lipoprotein alone; for selectin (E-selectin) expression: HAAE-1, not complexed with LDL
Experimental: Endothelial cell surface adhesion molecule expression was measured by ELISA, using anti-human CD54 (ICAM-1), CD106 (VCAM-1) and CD62E (E-Selectin) antibodies (Leinco Technologies, Inc., St. Louis, Mo.). The ELISA method was modified from previously described procedures.
Cells were then incubated with antibodies to VCAM-1, E-selectin, or ICAM-1 diluted 1:400 in PBS containing 5% FCS at 37° C. for 30 min. Wells were washed two times with PBS, then incubated with horseradish peroxidase (HRP)-conjugated goat anti-mouse IgG (Southern Biotechnology Associates, Birmingham, Ala., USA) in PBS/5% FCS at 37° C. for 30 min. The wells were washed four times with PBS, then incubated with H2O2/3,3′,5,5′-tetramethyl-benzidine peroxidase substrate (Pierce Chemical, Rockford, Ill., USA) for 30 min in the dark. The reaction was stopped by adding 25 μl of 8 N H2SO4, and the plates read on a microplate reader, blanking on wells stained with only secondary antibody. Each assay was performed in triplicate and the data are reported as the mean±SEM as a percentage of the expression level of the vehicle. To study the effect of cholesterol ozonation product 5a concentration (5-50 μM) on E-selectin expression, the assay was performed in an identical fashion as described above, with each point being the mean±SEM of at least duplicate measurements.

[1] = tested on: MH-S murine alveolar macrophage line; experiment: LDH release cytotoxicity assay, MH-S; format: cell-based; conditions: 18 h
Experimental: (§1) Cytotoxicity assays. WI-L2 human B-lymphocyte line, HAAE-1 human abdominal aortic endothelial line, MH-S murine alveolar macrophage line, and J774A.1 murine tissue macrophage line were obtained from the ATCC. Human aortic endothelial cells (HAEC) and human vascular smooth muscle cells (VSMS) were obtained from Cambrex Bio Science. Jurkat E6-1T-lymphocytes were kindly provided by Dr. J. Kaye (The Scripps Research Institute). Cells were cultured in ATCC-recommended media with 10% fetal calf serum. Cells were incubated in a controlled atmosphere at 37° C., with 5 or 7% CO2. For lactate dehydrogenase (LDH) release assays, adherent cells were harvested either by addition of 0.05% trypsin/EDTA or by scraping. The cells obtained were seeded onto 96-well microtiter plates (25,000 cells/well) and allowed to recover for 24-48 h. […] Cytotoxicity was then determined by measuring lactate dehydrogenase (LDH) release from cells in culture. […] 100% Cytotoxicity was defined as the maximum amount of LDH released by dead cells as shown by trypan blue exclusion, or the highest amount of LDH detected upon lysis of cells by 0.9% Triton X-100. The IC50 values were determined by comparison of the raw duplicate data for concentration versus cytotoxicity (%) to non-linear regression analysis (Hill plot) using Graphpad v3.0 software for Macintosh.

[2] = tested on: J774A.1 murine tissue macrophage line; experiment: LDH release cytotoxicity assay, J774A.1; format: cell-based
Experimental: as §1

J774.1 macrophages = experiment: Lipid-loading assay (foam cell formation); format: cell-based, murine; conditions: J774.1, 72 h, LDL 100 μg/mL with or without compound 20 μM
Experimental: Lipid-loading assay (foam cell formation). J774.1 macrophages were incubated in ATCC-recommended media containing 10% fetal bovine serum under a controlled atmosphere of 5 or 7% CO2 at 37° C., in 8-well chamber slides. […] At termination, cells were washed twice with PBS (pH 7.4). The cells were then fixed with 6% (v/v) paraformaldehyde in PBS for 30 minutes, rinsed with propylene glycol for 2 minutes and lipids were stained with 5 mg/ml Oil Red 0 for 8 minutes. The cells were counterstained with Harris' hematoxylin for 45 seconds, and background staining was removed with 6% paraformaldehyde followed by washing once in PBS and once in tap water. Cover slips were mounted onto the glass slides using glycerol and the slide preparations were examined by light microscopy. The number of lipid-laden cells was scored out of a total of at least 100 cells counted in a single field in each slide, and expressed as a percentage of total cells. Photographs were taken at 100× magnification.

[3] = tested on: Human aortic endothelial cells (HAEC); experiment: LDH release cytotoxicity assay, HAEC; format: cell-based; conditions: Endothelial cell, 18 h
Experimental: as §1, with “Macintosh. […]” for “Macintosh.”

[4] = complexed with native LDL (100 μg/ml)

SMILES: CC(C)CCC[C@@H](C)[C@H]1CCC2C3C(CC[C@@]21C)[C@@]1(C)CC[C@H](O)C[C@@]1(O)[C@@H]3C=O (stereo partly drawn) [5a, 3β-Hydroxy-5β-hydroxy-B-norcholestane-6β-carboxaldehyde]
- recruitment (migration) of macrophages (J774A.1 macrophages): stimulate dose-dependent recruitment of macrophages
- migration of macrophages (J774A.1 macrophages; co-incubated with BSA): macrophage migration still occurs
- migration of macrophages (J774A.1 macrophages; [4]): no significant migration
- upregulation of E-selectin expression relative to vehicle control (E-selectin): 1.8 fold
- selectin (E-selectin) expression (E-selectin): no effects
- IC50 ([1]; Mus musculus, Macrophage): 13.6 ± 1.1 µM
- IC50 ([2]; Mus musculus, J774.A1, 18 h): 26.1 ± 2.8 µM
- lipid-loading of macrophages / foam cell formation (J774.1 macrophages): began lipid-loading
- IC50 [3]: 18.2 ± 1.9 µM

SMILES: CC(C)CCC[C@@H](C)[C@H]1CCC2C(CC=O)C([C@@]3(C)CC[C@H](O)CC3=O)CC[C@@]21C (stereo partly drawn) [4a, 3β-Hydroxy-5-oxo-5,6-secocholestan-6-al]
- recruitment (migration) of macrophages (J774A.1 macrophages): stimulate dose-dependent recruitment of macrophages
- migration of macrophages (J774A.1 macrophages; co-incubated with BSA): macrophage migration still occurs
- migration of macrophages (J774A.1 macrophages; [4]): no significant migration
- E-selectin levels (E-selectin; HAAE-1, 1.25 μM complexed with LDL): 2 fold
- E-selectin levels (E-selectin; HAAE-1, 50 μM complexed with LDL): about 8 fold
- upregulation of E-selectin expression relative to vehicle control (E-selectin): greater than 4 fold
- selectin (E-selectin) expression (E-selectin): no effects
- IC50 ([1]; MH-S, LDH release, 0-100 μM, read-out: IC50): 11.2 ± 1.2 µM
- IC50 ([2]; J774A.1, LDH release, 0-100 μM, 18 h, read-out: IC50): 15.6 ± 2.1 µM
- lipid-loading of macrophages / foam cell formation (J774.1 macrophages): began lipid-loading
- IC50 ([3]; HAEC, LDH release, 0-100 μM, read-out: IC50): 24.6 ± 3.2 µM

— US20070059242A1, “METHODS TO IDENTIFY THERAPEUTIC AGENTS” (priority 2005, published 2007)
